Source: US20230233580A1, “USE OF OXYGENATED CHOLESTEROL SULFATES FOR CANCERS AND NON-CANCEROUS TRANSFORMATIONS RELATED TO EPSTEIN-BARR VIRUS” (priority 2020, published 2023)

Experiments:
[1] = Metabolite profiling of plasma and feces, oral dose; type: in vivo, rats; settings: oral 75 mg/kg
From the text: Radiolabeled components in plasma and feces extracts were profiled and identified using radio-high performance liquid chromatography (HPLC) and high performance liquid chromatography/mass spectrometry (HPLC/MS) methods.

[2] = tested on: 3 DNMTs and 9 other epigenetic enzymes; experiment: Enzyme kinetic study of epigenetic enzymes; type: biochemical; settings: for effect on enzymatic activities: controls
[3] = Tissue distribution by quantitative whole body autoradiography, intravenous dose, pigmented rats; type: in vivo, male Long Evans rats; settings: intravenous 10 mg/kg
From the text: (§1) The objectives of this study were to determine the plasma pharmacokinetics of [4-^14C]-25HC3S-derived radioactivity in male Sprague Dawley rats, determine the routes of elimination and excretion mass balance of [4-^14C]-25HC3S-derived radioactivity in male Sprague Dawley rats, determine the tissue distribution and tissue pharmacokinetics of [4-^14C]-25HC3S-derived radioactivity using quantitative whole body autoradiography methods in male Sprague Dawley and Long Evans rats following a single intravenous (bolus) dose, and to provide plasma, urine, and fecal homogenate samples for metabolite profiling of [4-^14C]-25HC3S-derived radioactivity.
(§2) Nine male Sprague Dawley rats (Group 1) were designated for the pharmacokinetic phase, 3 male Sprague Dawley rats (Group 2) for the excretion mass balance phase, and 7 male Sprague Dawley rats (Group 3) and 9 male Long Evans rats (Group 4) for the tissue distribution phase. All animals received a single intravenous dose of [^14C]-25HC3S at 10 mg/kg and a target radioactivity of 225 pCi/kg. […] Following blood collection, animals were euthanized by CO2 inhalation and carcasses frozen in a dry ice/hexane bath for processing by quantitative whole body autoradiography. Whole blood, plasma, urine, feces, cage rinse, and cage wash were analyzed for total radioactivity by liquid scintillation counting.

[4] = Tissue distribution by quantitative whole body autoradiography, intravenous dose; type: in vivo, male Sprague Dawley rats; settings: intravenous 10 mg/kg
Protocol: as §2, with “[…] Blood samples were collected from all Group 1” for “All”, “animals” for “animals received a single intravenous dose of [^14C]-25HC3S”, “approximately 0.083, 0.25, 0.5, 1, 2, 4, 8, 12, 24, 48,” for “10 mg/kg”, “72 hours post-dose. Urine and feces were collected from all Group 2 animals periodically through 168 hours post-dose.” for “a target radioactivity of 225 pCi/kg.”

[5] = Excretion mass balance, intravenous dose; type: in vivo, male Sprague Dawley rats; settings: over 168 hours, intravenous 10 mg/kg, rats
From the text: as §1, §2

[6] = Plasma pharmacokinetics of radioactivity, oral dose; type: in vivo; settings: single oral (gavage) dose 75 mg/kg, rats
[7] = Excretion mass balance, oral dose; type: in vivo; settings: oral (gavage) 75 mg/kg, rats
[8] = Tissue distribution by quantitative whole body autoradiography, oral dose; type: in vivo, male Sprague Dawley rats
[9] = Plasma pharmacokinetics of radioactivity, intravenous dose; type: in vivo, male Sprague Dawley rats; settings: single intravenous (bolus) dose 10 mg/kg, rats
From the text: as §1
as §2, with “[…]. Blood samples were collected from all Group 1 animals at approximately 0.083, 0.25, 0.5, 1, 2, 4, 8, 12, 24, 48, and 72 hours post-dose. Urine and feces were collected from all Group 2 animals periodically through 168 hours post-dose.” for “pCi/kg.”

[10] = calculated using AUClast, oral 75 mg/kg

In the case of `C[C@H](CCCC(C)(C)O)[C@H]1CC[C@H]2[C@@H]3CC=C4C[C@@H](O)CC[C@]4(C)[C@H]3CC[C@]12C` [25HC, 25-Hydroxycholesterol, reference compound], the “amount in feces, % of total dose” value ([1]; 0 to 168 hours post-dose pools) is reported as 1.9 % of total dose and the “relative observed intensity (ROI) in plasma” value ([1]; 2 hour post-dose plasma) is reported as 37%.

For `C[C@@H](CO)CCC[C@@H](C)[C@H]1CC[C@H]2[C@@H]3CC=C4C[C@@H](O)CC[C@]4(C)[C@H]3CC[C@]12C` [27HC, 27-Hydroxycholesterol], the “effect on other enzymes (than DNMT-1)” value [2] was “no effect”.

For `CC(C)CCC[C@@H](C)[C@H]1CC[C@H]2[C@@H]3CC=C4C[C@@H](OS(=O)(=O)O)CC[C@]4(C)[C@H]3CC[C@]12C` [Xol3S, 5-cholesten-3β-ol, 3-sulfate], the “effect on enzymatic activities” value [2] was “did not significantly affect”.

With `CC(C)CCC[C@@H](C)[C@H]1CC[C@H]2[C@@H]3CC=C4C[C@@H](O)CC[C@]4(C)[C@H]3CC[C@]12C` [Xol, Cholesterol] the “effect on enzymatic activities” value [2] was “did not significantly affect”.

For `C[C@H](CCCC(C)(C)O)[C@H]1CC[C@H]2[C@@H]3CC=C4[14CH2][C@@H](OS(=O)(=O)O)CC[C@]4(C)[C@H]3CC[C@]12C` [[4-^14C]-25HC3S], the “plasma or whole blood concentrations versus Sprague Dawley rats” value ([3]; first 168 hours post-dose) was “no substantial difference”, the “binding to pigmented or non-pigmented skin or the uveal tract” value [3] was “no difference” and the “tissue:plasma ratio, liver” value ([4]; calculated using AUClast) was 11.4. For the same compound, the “tissue:plasma ratio, small intestine (wall)” value ([4]; calculated using AUClast) was 7.44, the “plasma:whole blood AUClast ratio” value ([4]; Group 3) was 0.79 and the “whole blood AUClast” value ([4]; Group 3) was 25,200 h*ng-equiv./g. The maximum plasma concentration ([4]; QWBA phase) was 12,400 ng-equiv./g, the “AUClast in the liver” value ([4]; derived radioactivity) was ≤ 364,000 h-ng/g and the “tissue distribution of compound and/or metabolites” value ([4]; detected in all tissues except the eye (lens)) was “broadly distributed”. For the same compound, the “dose recovered in urine, feces, and cage rinse” value [5] was “approximately 100.2%”, the “recovered radioactivity in feces” value [5] was 83.0% and the “plasma AUClast” value [6] was 96,400 h-ng equiv./g. For the same compound, the “terminal elimination phase T1/2” value [6] was 27.3 h, the “dose recovered in urine, feces, and cage rinse” value [7] was “approximately 94.5%” and the “recovered radioactivity in feces” value [7] was 94.2%. The “tissue:plasma ratio, adrenal gland” value [8, 10] was 6.64, the “tissue:plasma ratio, liver” value [8, 10] was 6.96 and the “tissue:plasma ratio, small intestine (wall)” value [8, 10] was 15.4. The “Skin, thymus, prostate, and pituitary tissue concentrations” value ([8]; oral 75 mg/kg) was under 3000 ng equiv./g, the “tissue Tmax” value ([8]; oral 75 mg/kg) was at most 6 hours post-dose and the “tissue distribution of compound and/or metabolites” value ([8]; oral 75 mg/kg, detected in all tissues except the eye (lens)) was “broadly distributed”. For the same compound, the “plasma:whole blood AUClast ratio” value ([8]; oral (gavage) 75 mg/kg) was 1.12, the “whole blood AUClast” value ([8]; oral (gavage) 75 mg/kg) was 127,000 h-ng equiv./g and the “terminal elimination phase T1/2, plasma” value ([9]; PK phase) was 26.6 h. For the same compound, the “mean plasma C0” value ([9]; total radioactivity) was 25,900 ng-equiv./g and the “plasma AUClast” value ([9]; total radioactivity) was 27,900 h*ng-equiv./g.

For desmosterol sulfate, the “detection in plasma or feces samples” value ([1]; radiolabeled) was “not found”.
